Laboratory results from ChEMBL document CHEMBL1133941, “Drug design, synthesis, and evaluation of a non-sugar-based selectin antagonist” (Bioorg Med Chem Lett, 2001).

Columns and labels:
[1] = biological target: T1, P-selectin (Homo sapiens) (UniProt P16109); experiment: Inhibitory activity was evaluated In vitro in Selectin P mediated cell adhesion assay at a concentration of 30uM
T1 sequence (whole entry): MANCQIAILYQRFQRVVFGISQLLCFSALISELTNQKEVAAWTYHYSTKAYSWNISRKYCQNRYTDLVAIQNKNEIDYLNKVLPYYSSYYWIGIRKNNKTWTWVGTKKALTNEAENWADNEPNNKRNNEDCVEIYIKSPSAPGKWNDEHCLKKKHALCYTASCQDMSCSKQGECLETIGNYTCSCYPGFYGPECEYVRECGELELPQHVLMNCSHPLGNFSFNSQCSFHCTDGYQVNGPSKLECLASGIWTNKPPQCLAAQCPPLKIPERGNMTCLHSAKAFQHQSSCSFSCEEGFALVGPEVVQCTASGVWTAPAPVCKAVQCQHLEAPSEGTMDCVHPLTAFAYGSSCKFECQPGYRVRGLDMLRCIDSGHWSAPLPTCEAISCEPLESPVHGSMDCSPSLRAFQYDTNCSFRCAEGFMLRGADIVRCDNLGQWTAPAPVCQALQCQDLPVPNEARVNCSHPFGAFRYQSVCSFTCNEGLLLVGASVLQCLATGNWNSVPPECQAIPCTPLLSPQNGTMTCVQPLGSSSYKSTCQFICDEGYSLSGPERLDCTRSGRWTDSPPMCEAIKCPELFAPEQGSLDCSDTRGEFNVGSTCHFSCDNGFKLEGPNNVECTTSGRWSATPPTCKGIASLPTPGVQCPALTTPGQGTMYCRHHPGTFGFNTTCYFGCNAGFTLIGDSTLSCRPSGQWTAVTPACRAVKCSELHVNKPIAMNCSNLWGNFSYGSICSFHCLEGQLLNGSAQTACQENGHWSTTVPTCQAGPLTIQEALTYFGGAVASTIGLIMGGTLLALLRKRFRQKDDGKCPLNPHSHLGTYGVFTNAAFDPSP

[2] = Cell cytotoxicity of compound was evaluated In vitro in P-selectin mediated cell adhesion assay at a concentration of 30 uM; format: functional
P-selectin = biological target: T2, P-selectin (Homo sapiens, UniProt P16109); experiment: Inhibitory activity of compound against Selectin P/sLex binding was determined
T2 sequence (P16109 whole entry): T1 sequence (whole entry)

Row | SMILES | inhibition [1] [%] | Death [2] [%] | IC50 (P-selectin) [µM]
1 | CCCCCCCCCCCCCCC(CCCCCCCCCCCCCC)C(=O)N[C@@H](CO[C@@H]1O[C@@H](C)[C@@H](O)[C@H](O)[C@@H]1O)C(=O)N[C@@H](CCC(=O)O)C(=O)NC | 42.8 | 1.7 | 
2 | CCCCCCCCCCCCCCC(CCCCCCCCCCCCCC)CNC(=O)c1cc(CSC2OC(C)C(O)C(O)C2O)cc(C(=O)NC(CCC(=O)O)C(=O)NC)c1 (centres undefined) | -0.9 | 5.3 | 
3 | CCCCCCCCCCCCCCC(CCCCCCCCCCCCCC)CNC(=O)c1cc(CSC2OC(C)C(O)C(O)C2O)cc(C(=O)NCCC(=O)O)c1 (centres undefined) | 31.3 | 2.8 | 
4 | CCCCCCCCCCCCCCC(CCCCCCCCCCCCCC)CNC(=O)c1cc(CSC2OC(C)C(O)C(O)C2O)cc(C(=O)O)c1 (centres undefined) | 75.7 | 1.9 | 10.6
